# Numbered stars: 1 amine (or outer) side, 2 acyl side, 3 side chain; on linkers, the order of the positions; unused ones are H or OH. Bridge positions count the residues as written; N and C are the ends. Square brackets hold non-standard residues; d marks the D form. Peptide text beside a SMILES is read from it. Trp(βS-Me,7-OMe) = COc1cccc2c([C@H](C)[C@H](N)C(=O)O)c[nH]c12; Trp(1-CH2COOH) = N[C@@H](Cc1cn(CC(=O)O)c2ccccc12)C(=O)O; Morpholine(3S-CO,6,6-Me2) = CC1(C)CN[C@H](C(=O)O)CO1; Trp(βS-Me) = C[C@@H](c1c[nH]c2ccccc12)[C@H](N)C(=O)O; Trp(7-CN) = N#Cc1cccc2c(C[C@H](N)C(=O)O)c[nH]c12; Trp(7-Cl) = N[C@@H](Cc1c[nH]c2c(Cl)cccc12)C(=O)O; Phe(3-CONH2) = NC(=O)c1cccc(C[C@H](N)C(=O)O)c1; Phe(4-CONH2) = NC(=O)c1ccc(C[C@H](N)C(=O)O)cc1; Phe(4-COOH) = N[C@@H](Cc1ccc(C(=O)O)cc1)C(=O)O; Phe(4-CH2NH2) = NCc1ccc(C[C@H](N)C(=O)O)cc1; dPro(4S-NH2) = N[C@@H]1CN[C@@H](C(=O)O)C1; Pip(5R-OH) = O=C(O)[C@@H]1CC[C@@H](O)CN1; X1 = O=C([C@@H]1CC[C@H](N[*:1])C1)[*:2]; 2Nal = N[C@@H](Cc1ccc2ccccc2c1)C(=O)O; 4Pal = N[C@@H](Cc1ccncc1)C(=O)O; NMeE = CN[C@@H](CCC(=O)O)C(=O)O; dHyp = O=C(O)[C@H]1C[C@H](O)CN1; Cit = NC(=O)NCCC[C@H](N)C(=O)O; NEtAla = CCN[C@@H](C)C(=O)O; Pip = O=C(O)[C@@H]1CCCCN1; αMeS = C[C@](N)(CO)C(=O)O; Nle = CCCC[C@H](N)C(=O)O; Sar = CNCC(=O)O
# Tests used:
# [1] = molecular target: T1, human TNFR2 ECD protein (Homo sapiens, UniProt P20333); assay: SPR off-target binding (selectivity) to human TNFR2 ECD; conditions: biotinylated human TNFR2 ECD on streptavidin chip; read-out: SPR hTNFR2 KD
# T1 construct: HRV 3C protease cleavage site (C); 6His (C, cleaved yes); made in house; host or cells: Sf21 insect cells (baculovirus), secreted
# T1 sequence (P20333 23-257): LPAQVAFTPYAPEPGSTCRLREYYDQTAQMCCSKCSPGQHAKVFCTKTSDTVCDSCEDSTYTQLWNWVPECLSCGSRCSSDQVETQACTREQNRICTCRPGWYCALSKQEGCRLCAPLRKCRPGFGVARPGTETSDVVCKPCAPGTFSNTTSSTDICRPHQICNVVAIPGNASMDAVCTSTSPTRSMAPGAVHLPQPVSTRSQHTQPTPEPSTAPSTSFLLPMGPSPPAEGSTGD
# Outline: (§1)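 Read-out: kon, koff and derived affinity from SPR response units. Human TNFR1 and TNFR2 ECD, Avi-tag biotinylated with BirA, captured on a streptavidin surface; peptides injected under laminar flow in HEPES-saline with EDTA, P20 and 2% DMSO.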
# [2] = molecular target: T2, human soluble TNFR1 (sTNFR1) (Homo sapiens, UniProt P19438); assay: Human sTNFR1-peptide displacement assay (LanthaScreen Eu TR-FRET binding assay); conditions: displacement of biotinylated peptide SEQ ID NO. 1 from sTNFR1; for Kd: 20 point titration, 5-parameter fit based on Morrison equation (tight binding), read-out: TR-FRET Kd^app; for IC50: weaker binders, 10 pts titration, 4-parameter logistic model, read-out: TR-FRET, IC50
# T2 construct: made in house; host or cells: Sf21 (baculovirus)
# T2 sequence (P19438 with tags, fused parts or gaps): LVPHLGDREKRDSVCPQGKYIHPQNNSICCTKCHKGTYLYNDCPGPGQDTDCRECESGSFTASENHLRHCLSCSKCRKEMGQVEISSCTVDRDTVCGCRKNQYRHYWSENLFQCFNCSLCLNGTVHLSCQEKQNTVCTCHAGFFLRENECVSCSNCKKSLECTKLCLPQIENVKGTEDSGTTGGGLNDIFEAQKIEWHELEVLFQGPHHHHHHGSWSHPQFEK
# Outline: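 Readout is the 665/615 nm TR-FRET ratio (Eu anti-His donor, streptavidin-Alexa647 acceptor), normalized to DMSO and saturating displacer, fit by Morrison-based five-parameter logistic for Kd^app. His-tagged sTNFR1 (1-211) prebound to 100 nM biotinylated peptide SEQ ID NO.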
# [3] = molecular target: T3, human TNFR1 extracellular domain (ECD) protein (Homo sapiens, UniProt P19438); assay: SPR binding affinity to captured human TNFR1 ECD; conditions: biotinylated human TNFR1 ECD on streptavidin chip; from kon and koff; read-out: SPR hTNFR1 KD
# T3 construct: HRV 3C protease cleavage site (C); 6His (C, cleaved yes); made in house; host or cells: Sf21 insect cells (baculovirus), secreted
# T3 sequence (P19438 30-211): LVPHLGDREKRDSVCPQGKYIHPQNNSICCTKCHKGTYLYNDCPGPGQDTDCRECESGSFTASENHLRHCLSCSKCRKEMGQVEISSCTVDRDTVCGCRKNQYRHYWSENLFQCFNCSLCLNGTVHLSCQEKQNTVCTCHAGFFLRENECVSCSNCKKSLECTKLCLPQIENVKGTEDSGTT
# Outline: as §1
Structure (SMILES),Kd [1] [nM],Kd [2] [nM],Kd [3] [nM],IC50 [2] [nM]
"CCCC[C@@H]1NC(=O)[C@@H]2CC[C@@H](C2)NC(=O)[C@H]([C@@H](C)c2c[nH]c3c(OC)cccc23)NC(=O)CN(C)C(=O)[C@H](Cc2ccc(C(=O)O)cc2)NC(=O)[C@H](Cc2ccc(C(N)=O)cc2)NC(=O)[C@](C)(CO)NC(=O)[C@H](Cc2c[nH]c3c(C#N)cccc23)NC(=O)[C@H](Cc2ccc(C(=O)O)cc2)NC(=O)[C@H](CC(N)=O)NC(=O)[C@H]2C[C@H](N)CN2C(=O)[C@H](Cc2cn(CC(=O)O)c3ccccc23)NC(=O)[C@@H]2CC[C@@H](O)CN2C(=O)[C@H](Cc2ccncc2)NC1=O [SEQ ID NO. 104] (cyclo([4Pal][Pip(5R-OH)][Trp(1-CH2COOH)][dPro(4S-NH2)]N[Phe(4-COOH)][Trp(7-CN)][αMeS][Phe(4-CONH2)][Phe(4-COOH)][Sar][Trp(βS-Me,7-OMe)][X1][Nle]))",> 1000,0.09,0.02,–
"CCCC[C@@H]1NC(=O)CSC[C@@H](C(N)=O)NC(=O)[C@H]([C@@H](C)c2c[nH]c3c(OC)cccc23)NC(=O)CN(C)C(=O)[C@H](Cc2ccc(O)cc2)NC(=O)[C@H](Cc2ccc(C(=O)O)cc2)NC(=O)[C@](C)(CO)NC(=O)[C@H](Cc2c[nH]c3c(Cl)cccc23)NC(=O)[C@H](Cc2ccncc2)NC(=O)[C@H](CC(N)=O)NC(=O)[C@H](C)N(CC)C(=O)[C@H](Cc2c[nH]c3ccccc23)NC(=O)[C@@H]2COC(C)(C)CN2C(=O)[C@H](Cc2ccncc2)NC1=O [SEQ ID NO. 183] ({CH2CO}-[Nle][4Pal][Morpholine(3S-CO,6,6-Me2)]W[NEtAla]N[4Pal][Trp(7-Cl)][αMeS][Phe(4-COOH)]Y[Sar][Trp(βS-Me,7-OMe)]C-NH2; thioether N-14)",> 1000,0.17,0.1,0.5
"CCCC[C@@H]1NC(=O)[C@@H]2CC[C@@H](C2)NC(=O)[C@H]([C@@H](C)c2c[nH]c3c(OC)cccc23)NC(=O)CN(C)C(=O)[C@H](Cc2ccc(C(N)=O)cc2)NC(=O)[C@H](Cc2ccc(C(N)=O)cc2)NC(=O)[C@](C)(CO)NC(=O)[C@H](Cc2c[nH]c3c(Cl)cccc23)NC(=O)[C@H](Cc2ccc(C(=O)O)cc2)NC(=O)[C@H](CC(N)=O)NC(=O)[C@H]2C[C@H](O)CN2C(=O)[C@H](Cc2c[nH]c3ccccc23)NC(=O)[C@@H]2CC[C@@H](O)CN2C(=O)[C@H](Cc2ccncc2)NC1=O [SEQ ID NO. 196] (cyclo([4Pal][Pip(5R-OH)]W[dHyp]N[Phe(4-COOH)][Trp(7-Cl)][αMeS][Phe(4-CONH2)][Phe(4-CONH2)][Sar][Trp(βS-Me,7-OMe)][X1][Nle]))",> 1000,0.09,0.05,–
C[C@@H](c1c[nH]c2ccccc12)[C@@H]1NC(=O)CN(C)C(=O)[C@H](Cc2ccc(CN)cc2)NC(=O)[C@H](Cc2ccc(C(=O)O)cc2)NC(=O)[C@](C)(CO)NC(=O)[C@H](Cc2ccc3ccccc3c2)NC(=O)[C@H](Cc2ccc(CN)cc2)NC(=O)[C@H](CC(N)=O)NC(=O)[C@H]2CCCN2C(=O)[C@H]([C@@H](C)c2c[nH]c3ccccc23)NC(=O)[C@H](CO)NC(=O)[C@H](Cc2ccc(CN)cc2)NC(=O)[C@H](CCCNC(N)=O)NC(=O)CSC[C@@H](C(N)=O)NC1=O [SEQ ID NO. 206] ({CH2CO}-[Cit][Phe(4-CH2NH2)]S[Trp(βS-Me)][dP]N[Phe(4-CH2NH2)][2Nal][αMeS][Phe(4-COOH)][Phe(4-CH2NH2)][Sar][Trp(βS-Me)]C-NH2; thioether N-14),> 1000,–,3,26
"CCCC[C@@H]1NC(=O)[C@@H]2CC[C@@H](C2)NC(=O)[C@H]([C@@H](C)c2c[nH]c3c(OC)cccc23)NC(=O)CN(C)C(=O)[C@H](Cc2cccc(C(N)=O)c2)NC(=O)[C@H](Cc2ccc(C(=O)O)cc2)NC(=O)[C@](C)(CO)NC(=O)[C@H](Cc2c[nH]c3c(Cl)cccc23)NC(=O)[C@H](Cc2ccncc2)NC(=O)[C@H](CC(N)=O)NC(=O)[C@H](CCC(=O)O)N(C)C(=O)[C@H](Cc2c[nH]c3ccccc23)NC(=O)[C@@H]2CCCCN2C(=O)[C@H](Cc2ccncc2)NC1=O [SEQ ID NO. 221] (cyclo([4Pal][Pip]W[NMeE]N[4Pal][Trp(7-Cl)][αMeS][Phe(4-COOH)][Phe(3-CONH2)][Sar][Trp(βS-Me,7-OMe)][X1][Nle]))",> 1000,0.31,0.14,–

# — patent US20240287138A1, “CYCLIC PEPTIDES FOR INHIBITING TNF RECEPTOR 1 ACTIVITY” (Merck Sharp & Dohme LLC, priority 2023, published 2024)
